In experiment [1] the target is T1, Bile acid receptor (Homo sapiens, UniProt Q96RI1).
T1 sequence (Q96RI1 whole entry): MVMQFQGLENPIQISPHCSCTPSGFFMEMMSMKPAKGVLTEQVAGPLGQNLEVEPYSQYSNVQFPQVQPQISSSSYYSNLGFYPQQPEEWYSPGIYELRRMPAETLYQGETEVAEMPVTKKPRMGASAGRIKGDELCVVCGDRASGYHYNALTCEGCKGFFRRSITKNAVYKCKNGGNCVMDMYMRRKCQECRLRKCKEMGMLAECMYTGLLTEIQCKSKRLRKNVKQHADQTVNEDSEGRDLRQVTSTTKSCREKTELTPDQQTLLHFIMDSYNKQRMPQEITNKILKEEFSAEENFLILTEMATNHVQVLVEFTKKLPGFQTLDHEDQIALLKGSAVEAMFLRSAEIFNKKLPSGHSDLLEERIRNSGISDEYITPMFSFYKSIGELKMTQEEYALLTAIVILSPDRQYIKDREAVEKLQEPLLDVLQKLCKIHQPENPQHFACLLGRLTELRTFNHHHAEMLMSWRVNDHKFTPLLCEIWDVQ
The experiment in a line: Agonist activity at FXR assessed as activation by cell based luciferase transactivation assay. The format is functional.

In experiment [2] the target is T2, Bile acid receptor (Homo sapiens) (UniProt Q96RI1).
T2 sequence (whole entry): T1 sequence (Q96RI1 whole entry)
The experiment is described as follows: Agonist activity at FXR assessed as activation by cell based luciferase transactivation assay at less than 5 uM. The format is functional.

Activity calls are given as the source filed them. The rule behind the calls is not given here.

The term EC50 denotes the concentration at which the effect is half-maximal. Turning to `Cc1cccc(COc2cccc(/C=C3\C(=O)NN(c4ccccc4[N+](=O)[O-])C3=O)c2)c1`, in experiment [1], the EC50 came out at 5.37 µM.
Same read-out and setting: the same measure for `O=C1C(=Cc2cccc([N+](=O)[O-])c2)C(=O)N(c2ccccc2)N1c1ccccc1`: 4.27 µM.
On to `Cc1cccc(COc2cccc(/C=C3\C(=O)NN(C(=O)c4ccncc4)C3=O)c2)c1`, for which the EC50 in experiment [1] was determined as 2.4 µM. In experiment [2], the outcome was Active.
As to `O=C1NN(C(=O)c2ccco2)C(=O)/C1=C/c1ccc(OCc2ccccc2)cc1`, the half-maximal effective concentration (EC50) in experiment [1] was 3.31 µM.
Still for that read-out and setting: the same measure for `Cc1cccc(COc2cccc(/C=C3\C(=O)NN(c4ccccc4)C3=O)c2)c1`: 5.15 µM.
As to `O=C1C(=Cc2ccc(OCc3ccccc3)cc2)C(=O)N(c2ccccc2)N1c1ccccc1`, in experiment [1], the EC50 came out at 6.31 µM. The outcome in experiment [2] was Active.
For `O=C1NN(c2ccccc2)C(=O)/C1=C/c1cccc(OCc2ccc(C(F)(F)F)cc2)c1`, in that order: 2.04 µM and “Active”.
For the compound `CCOC(=O)C(=Cc1ccc(OCc2ccccc2)cc1)C(=O)OCC`, in experiment [1], the half-maximal effective concentration (EC50) was 6.17 µM.
Regarding `Cc1cccc(COc2cccc(/C=C3\C(=O)NN(C(=O)c4ccc(F)cc4)C3=O)c2)c1`, the EC50 in experiment [1] stood at 1.86 µM. For the same compound, in experiment [2], the outcome was Active.
`O=C1NN(c2ccccc2)C(=O)/C1=C/c1cccc(OCc2cccc(C(F)(F)F)c2)c1`: in experiment [1], the EC50 was 6.92 µM.
Same read-out and setting: the same measure for `O=C1NN(c2ccccc2)C(=O)/C1=C/c1cccc(OCc2cccc(F)c2)c1`: 4.79 µM.
For `O=C1NN(C(=O)c2ccccc2)C(=O)/C1=C/c1ccc(OCc2ccccc2)cc1`, the EC50 in experiment [1] amounted to 3.98 µM.

These data come from ChEMBL document CHEMBL1142452, “Pyrazolidine-3,5-dione derivatives as potent non-steroidal agonists of farnesoid X receptor: virtual screening, synthesis, and biological evaluation” (Bioorg Med Chem Lett, 2008).
